One assay deals with PIK3Cδ_h (Homo sapiens (Human), UniProt O00329). As to the kind of experiment: KINOMEscan enzyme binding assay, PIK3Cδ. The settings on record: DiscoveRx. As for the experimental part: (§1) Enzyme Binding Assays (KINOMEscan®) Kinase enzyme binding affinities of compounds disclosed herein were determined using the KINOMEscan technology performed by DiscoveRx Corporation, San Diego, Calif., USA (www.kinomescan.com). Table A reports the obtained Kd values (nM), with the Kd being the inhibitor binding constant: […]
Chain of PIK3Cδ_h (O00329 whole entry): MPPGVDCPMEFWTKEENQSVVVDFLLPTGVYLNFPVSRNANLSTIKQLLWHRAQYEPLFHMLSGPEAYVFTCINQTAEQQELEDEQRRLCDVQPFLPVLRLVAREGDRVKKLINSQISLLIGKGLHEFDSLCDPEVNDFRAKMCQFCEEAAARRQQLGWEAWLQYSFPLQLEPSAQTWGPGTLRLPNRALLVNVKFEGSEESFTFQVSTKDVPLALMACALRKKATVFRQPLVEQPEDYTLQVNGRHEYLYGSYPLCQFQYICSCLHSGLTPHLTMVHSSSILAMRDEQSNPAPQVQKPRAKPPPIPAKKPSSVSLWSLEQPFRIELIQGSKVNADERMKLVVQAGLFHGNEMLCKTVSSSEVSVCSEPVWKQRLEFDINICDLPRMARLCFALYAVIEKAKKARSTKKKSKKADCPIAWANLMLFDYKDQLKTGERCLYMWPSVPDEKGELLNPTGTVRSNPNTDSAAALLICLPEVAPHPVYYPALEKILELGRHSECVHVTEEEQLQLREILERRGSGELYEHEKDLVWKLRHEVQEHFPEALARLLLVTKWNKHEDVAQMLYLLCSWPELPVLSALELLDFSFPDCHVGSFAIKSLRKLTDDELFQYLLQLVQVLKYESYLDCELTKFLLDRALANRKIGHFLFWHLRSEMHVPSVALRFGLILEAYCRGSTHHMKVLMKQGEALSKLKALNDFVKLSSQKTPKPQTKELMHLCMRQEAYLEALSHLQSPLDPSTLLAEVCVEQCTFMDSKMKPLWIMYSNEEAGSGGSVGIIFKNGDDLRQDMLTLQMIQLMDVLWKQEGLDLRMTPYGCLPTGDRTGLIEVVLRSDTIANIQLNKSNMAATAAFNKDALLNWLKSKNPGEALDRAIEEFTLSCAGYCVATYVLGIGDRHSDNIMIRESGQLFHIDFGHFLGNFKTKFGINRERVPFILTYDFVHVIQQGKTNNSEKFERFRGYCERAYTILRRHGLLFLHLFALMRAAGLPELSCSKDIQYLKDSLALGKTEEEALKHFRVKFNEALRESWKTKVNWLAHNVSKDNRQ

The next assay has as its target MTOR_h (Homo sapiens (Human), UniProt P42345). Description: KINOMEscan enzyme binding assay, MTOR. The note with it: DiscoveRx. Here is the method: (§2) Enzyme Binding Assays (KINOMEscan®) Kinase enzyme binding affinities of compounds disclosed herein were determined using the KINOMEscan technology performed by DiscoveRx Corporation, San Diego, Calif., USA (www.kinomescan.com).

In assay [1] the test system is Akt phosphorylated at Thr308 in PC-3 cells. As to the kind of experiment: Cellular assay: phosphorylation of Akt (Thr308) in PC-3 cells, MSD ELISA. The class given is cell-based. The settings on record: 60 min incubation with compound, read-out: IC50 pAkt_Thr308. Summed up: (§3)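 PC-3 cells cultured 24 h in DMEM/10% FCS were exposed to compound for 60 min at 37° C, with 0.3% DMSO. Lysates were analysed by MSD electrochemiluminescent sandwich ELISA using phospho-Ser473 or phospho-Thr308 capture and anti-total Akt detection antibodies. IC50 was derived by nonlinear sigmoidal fitting of % inhibition over five concentrations.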

The next assay concerns the target PIK3Cβ_h (Homo sapiens (Human), UniProt P42338). Description: KINOMEscan enzyme binding assay, PIK3Cβ. The note with it: DiscoveRx. Here is the method:
as §1

The target of another assay is PIK3Cα_h (Homo sapiens (Human), UniProt P42336). As to the kind of experiment: KINOMEscan enzyme binding assay, PIK3Cα. The note with it: DiscoveRx. Here is the method:
as §2

In the next assay the target is PIK3Cγ_h (Homo sapiens (Human), UniProt P48736). Description: KINOMEscan enzyme binding assay, PIK3Cγ. The settings on record: DiscoveRx. Here is the method: as §2
Chain of PIK3Cγ_h (P48736 whole entry): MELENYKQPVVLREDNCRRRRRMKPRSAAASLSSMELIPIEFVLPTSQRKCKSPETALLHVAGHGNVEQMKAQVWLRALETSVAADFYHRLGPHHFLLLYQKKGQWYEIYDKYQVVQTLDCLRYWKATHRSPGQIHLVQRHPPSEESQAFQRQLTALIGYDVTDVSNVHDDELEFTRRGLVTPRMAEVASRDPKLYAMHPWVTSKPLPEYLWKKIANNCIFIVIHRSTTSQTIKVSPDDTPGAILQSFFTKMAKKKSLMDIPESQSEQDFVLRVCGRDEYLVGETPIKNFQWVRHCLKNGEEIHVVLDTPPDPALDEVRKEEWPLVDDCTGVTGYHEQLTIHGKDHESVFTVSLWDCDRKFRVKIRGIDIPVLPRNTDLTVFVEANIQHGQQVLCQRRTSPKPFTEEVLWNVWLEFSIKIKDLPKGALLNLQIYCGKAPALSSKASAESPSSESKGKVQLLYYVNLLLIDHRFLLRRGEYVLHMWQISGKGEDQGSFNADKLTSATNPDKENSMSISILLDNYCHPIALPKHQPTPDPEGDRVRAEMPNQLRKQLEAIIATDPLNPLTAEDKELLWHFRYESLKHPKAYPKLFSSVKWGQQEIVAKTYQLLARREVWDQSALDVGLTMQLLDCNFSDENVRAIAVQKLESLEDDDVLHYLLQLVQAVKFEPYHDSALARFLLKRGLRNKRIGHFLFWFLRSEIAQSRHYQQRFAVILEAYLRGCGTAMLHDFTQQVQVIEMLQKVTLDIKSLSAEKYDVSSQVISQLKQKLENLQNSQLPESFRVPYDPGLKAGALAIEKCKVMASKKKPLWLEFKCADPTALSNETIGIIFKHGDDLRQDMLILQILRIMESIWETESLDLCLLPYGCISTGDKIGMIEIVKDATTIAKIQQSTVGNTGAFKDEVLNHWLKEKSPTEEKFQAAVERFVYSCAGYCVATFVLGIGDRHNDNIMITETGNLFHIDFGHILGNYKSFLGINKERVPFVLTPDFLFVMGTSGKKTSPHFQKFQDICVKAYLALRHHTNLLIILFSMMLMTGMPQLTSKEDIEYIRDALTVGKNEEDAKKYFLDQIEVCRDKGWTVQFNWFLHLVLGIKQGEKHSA
The test system of assay [2] is Akt phosphorylated at Ser473 in PC-3 cells. As to the kind of experiment: Cellular assay: phosphorylation of Akt (Ser473) in PC-3 cells, MSD ELISA. The settings on record: 60 min incubation with compound, read-out: IC50 pAkt_S473. The format is cell-based. Summed up:
as §3

Read-outs that look alike come from different tables or passages of the source. Bounds are passed on as bounds.

Chain of PIK3Cα_h (P42336 whole entry): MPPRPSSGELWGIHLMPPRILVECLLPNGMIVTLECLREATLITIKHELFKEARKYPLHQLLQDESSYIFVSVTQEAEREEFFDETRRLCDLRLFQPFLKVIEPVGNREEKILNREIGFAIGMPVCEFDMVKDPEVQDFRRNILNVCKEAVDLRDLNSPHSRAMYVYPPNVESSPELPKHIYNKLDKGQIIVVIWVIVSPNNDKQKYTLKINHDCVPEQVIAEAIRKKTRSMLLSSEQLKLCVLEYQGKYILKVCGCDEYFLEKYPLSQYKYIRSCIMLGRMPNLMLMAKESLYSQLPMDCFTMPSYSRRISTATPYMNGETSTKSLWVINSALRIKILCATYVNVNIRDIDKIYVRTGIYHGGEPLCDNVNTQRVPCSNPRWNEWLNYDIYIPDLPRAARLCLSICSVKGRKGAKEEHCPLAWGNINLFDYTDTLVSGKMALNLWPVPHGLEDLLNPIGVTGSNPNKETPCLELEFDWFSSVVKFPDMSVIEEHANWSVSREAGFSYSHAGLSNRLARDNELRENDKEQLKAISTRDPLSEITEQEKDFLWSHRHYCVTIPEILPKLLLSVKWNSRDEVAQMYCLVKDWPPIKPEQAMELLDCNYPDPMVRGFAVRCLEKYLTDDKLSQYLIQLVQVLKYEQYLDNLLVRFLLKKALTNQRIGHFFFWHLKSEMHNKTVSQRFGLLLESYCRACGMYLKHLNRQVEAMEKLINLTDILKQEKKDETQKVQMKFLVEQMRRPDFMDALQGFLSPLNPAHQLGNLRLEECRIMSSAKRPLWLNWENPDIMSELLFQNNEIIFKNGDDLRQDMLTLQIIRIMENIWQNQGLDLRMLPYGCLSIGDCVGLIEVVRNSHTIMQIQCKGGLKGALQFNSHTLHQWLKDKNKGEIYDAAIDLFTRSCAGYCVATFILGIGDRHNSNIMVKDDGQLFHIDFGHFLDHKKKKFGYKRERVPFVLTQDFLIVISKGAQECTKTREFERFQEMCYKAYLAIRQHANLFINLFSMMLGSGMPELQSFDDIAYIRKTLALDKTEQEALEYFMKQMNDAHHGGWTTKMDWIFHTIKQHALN
Chain of PIK3Cβ_h (P42338 whole entry): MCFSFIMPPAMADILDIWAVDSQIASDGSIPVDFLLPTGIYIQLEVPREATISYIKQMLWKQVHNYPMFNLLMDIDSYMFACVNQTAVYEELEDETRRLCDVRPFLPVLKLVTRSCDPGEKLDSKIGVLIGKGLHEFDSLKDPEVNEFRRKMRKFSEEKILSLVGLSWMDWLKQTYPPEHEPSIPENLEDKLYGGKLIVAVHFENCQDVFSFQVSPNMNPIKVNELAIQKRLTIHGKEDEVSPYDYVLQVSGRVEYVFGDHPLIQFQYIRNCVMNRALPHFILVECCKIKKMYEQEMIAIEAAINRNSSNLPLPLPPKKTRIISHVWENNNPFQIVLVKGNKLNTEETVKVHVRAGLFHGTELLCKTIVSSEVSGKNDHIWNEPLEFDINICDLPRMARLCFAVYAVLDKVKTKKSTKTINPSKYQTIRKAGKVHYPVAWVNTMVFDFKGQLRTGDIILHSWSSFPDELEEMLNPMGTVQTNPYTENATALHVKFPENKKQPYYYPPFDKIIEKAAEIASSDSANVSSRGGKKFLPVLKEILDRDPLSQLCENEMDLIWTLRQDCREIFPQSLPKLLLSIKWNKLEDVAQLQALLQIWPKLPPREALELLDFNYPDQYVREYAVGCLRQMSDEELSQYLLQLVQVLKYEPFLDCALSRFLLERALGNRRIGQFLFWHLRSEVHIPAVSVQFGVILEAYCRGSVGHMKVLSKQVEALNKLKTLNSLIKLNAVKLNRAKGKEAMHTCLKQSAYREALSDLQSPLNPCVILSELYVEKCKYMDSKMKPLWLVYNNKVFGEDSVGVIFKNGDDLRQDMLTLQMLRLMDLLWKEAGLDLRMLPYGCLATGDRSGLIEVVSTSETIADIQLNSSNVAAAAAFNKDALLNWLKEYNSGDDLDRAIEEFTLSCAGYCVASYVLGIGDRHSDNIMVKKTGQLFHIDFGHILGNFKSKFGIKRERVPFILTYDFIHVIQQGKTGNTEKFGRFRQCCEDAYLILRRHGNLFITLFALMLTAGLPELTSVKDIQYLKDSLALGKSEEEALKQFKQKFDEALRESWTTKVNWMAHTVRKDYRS

Consider `Cc1cccc(Nc2c(C)nc3c(N)cc(N4CCOCC4)nn23)c1C` [Compound 39], for which the Kd on PIK3Cδ_h is 31 nM; at MTOR_h, 4900 nM; at PIK3Cβ_h it was 1.1 nM; at PIK3Cα_h, 2570 nM; on PIK3Cγ_h, 8510 nM. Further, the IC50 in assay [1] (Homo sapiens, PC-3, 1 h) was approximately 43 nM; in assay [2] (Homo sapiens, PC-3, 1 h) it was 34 nM.

Take `Cc1c(Cc2c(CO)nc3c(-c4ncc[nH]4)cc(N4CCOCC4)nn23)cccc1C(F)(F)F` [Compound 20]: the Kd was 85 nM at PIK3Cδ_h; more than 10000 nM on MTOR_h; 2.2 nM on PIK3Cβ_h; 1700 nM at PIK3Cα_h; 4790 nM at PIK3Cγ_h. Moreover, the IC50 in assay [1] (Homo sapiens, PC-3, 1 h) was approximately 25 nM; in assay [2] (Homo sapiens, PC-3, 1 h), 33 nM.

As for `Cc1nc2c(N)cc(N3CCOCC3)nn2c1Nc1cccc(C(F)(F)F)c1CN1CCOCC1` [Compound 38], the Kd at PIK3Cδ_h came out at 15 nM; at MTOR_h it was 9370 nM; at PIK3Cβ_h it was 4 nM; on PIK3Cα_h it was 4050 nM; at PIK3Cγ_h, 12900 nM. Besides, the IC50 worked out at 10 nM in assay [1] (Homo sapiens, PC-3, 1 h) and 18 nM in assay [2] (Homo sapiens, PC-3, 1 h).

Turning to `Cc1nc2c(N)cc(N3CCOCC3)nn2c1Nc1cccc(F)c1CN1CCOCC1` [Compound 63], the Kd at PIK3Cδ_h is 42 nM; on MTOR_h it was 3160 nM; at PIK3Cβ_h it was 2.2 nM; at PIK3Cα_h, 4170 nM; on PIK3Cγ_h, 20000 nM. The IC50 is 96 nM in assay [1] (Homo sapiens, PC-3, 1 h) and 138 nM in assay [2] (Homo sapiens, PC-3, 1 h).

Take `Cc1c(Cc2c(CF)nc3c(C(N)=O)cc(N4CCOCC4)nn23)cccc1C(F)(F)F` [Compound 16]: the Kd on PIK3Cδ_h was more than 3310 nM; at MTOR_h, more than 30200 nM; on PIK3Cβ_h it was 10 nM; at PIK3Cα_h it was more than 10000 nM; on PIK3Cγ_h, more than 3310 nM. For the same molecule, the IC50 was 155 nM in assay [1] (Homo sapiens, PC-3, 1 h) and 123 nM in assay [2] (Homo sapiens, PC-3, 1 h).

Take `Cc1nc2c(N)cc(N3CCOCC3)nn2c1Nc1cccc(F)c1CNC(C)CO` (stereo not shown) [Compound 71]: the Kd at PIK3Cδ_h was 75 nM; on MTOR_h, more than 30200 nM; at PIK3Cβ_h, 6 nM; on PIK3Cα_h it was 17000 nM; on PIK3Cγ_h it was more than 30200 nM. The IC50 worked out at 107 nM in assay [1] (Homo sapiens, PC-3, 1 h) and 246 nM in assay [2] (Homo sapiens, PC-3, 1 h).

As for `Cc1nc2c(C(N)=O)cc(N3CCOCC3)nn2c1Cc1cccc(C(F)(F)F)c1C` [Compound 10], the Kd on PIK3Cδ_h was 12600 nM; at MTOR_h it was more than 30200 nM; on PIK3Cβ_h, 20 nM; on PIK3Cα_h, more than 30200 nM; on PIK3Cγ_h, more than 30200 nM. The half-inhibitory concentration (IC50) was more than 513 nM in assay [1] (Homo sapiens, PC-3, 1 h) and 501 nM in assay [2] (Homo sapiens, PC-3, 1 h).

As to `Cc1c(Cc2c(CN(C)CCS(C)(=O)=O)nc3c(N)cc(N4CCOCC4)nn23)cccc1C(F)(F)F` [Compound 1], the Kd at PIK3Cδ_h was 513 nM; at MTOR_h, 23400 nM; at PIK3Cβ_h, 2.4 nM; at PIK3Cα_h, 16600 nM; at PIK3Cγ_h, more than 30200 nM. The IC50 in assay [1] (Homo sapiens, PC-3, 1 h) is 74 nM; in assay [2] (Homo sapiens, PC-3, 1 h), approximately 34 nM.

Consider `Cc1nc2c(C(N)=O)cc(N3CCOCC3)nn2c1Nc1ccccc1N1CCOCC1` [Compound 87], for which the Kd stood at 219 nM at PIK3Cδ_h; 5890 nM at MTOR_h; 43 nM on PIK3Cβ_h; 1200 nM on PIK3Cα_h; 3630 nM at PIK3Cγ_h. Also, the IC50 in assay [1] (Homo sapiens, PC-3, 1 h) is approximately 224 nM; in assay [2] (Homo sapiens, PC-3, 1 h) it was 257 nM.

With `Cc1c(Cc2c(CO)nc3c(N)cc(N4CCOCC4)nn23)cccc1C(F)(F)F` [Compound 14a], the dissociation constant Kd is 225 nM on PIK3Cδ_h; 6760 nM on MTOR_h; 1.2 nM on PIK3Cβ_h; more than 30200 nM on PIK3Cα_h; more than 10000 nM at PIK3Cγ_h. In addition, the IC50 in assay [1] was 38 nM; in assay [2], approximately 46 nM.

The record behind these values is patent US10087187B2, “Imidazopyridazine derivatives as PI3KB inhibitors” (Janssen Pharmaceutica NV, priority 2014, dated 2018).
